The record followed here is PubChem BioAssay (NCI).

Structures are written as SMILES.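 These data come from cells grown in 96-well plates and exposed to compound for 48 hours at five concentrations. Abbreviation: GI50, concentration required for 50% inhibition of growth. TGI is the concentration that stops growth completely.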

Common to all, as to assay: growth of human tumour cells (NCI), 48 h
For assay [1], the system named is T-47D breast.
The subject of assay [2] is PC-3 prostate.
In assay [3] the test system is CCRF-CEM leukemia.
For assay [4], the system named is NCI/ADR-RES ovarian.
The subject of assay [5] is SNB-19 CNS.
Assay [6] concerns SK-MEL-2 melanoma.
Assay [7] deals with 786-0 renal.
The test system of assay [8] is RXF 393 renal.
In assay [9] the test system is UACC-62 melanoma.
Assay [10] relates to DU-145 prostate.

`CN(C)c1ccc(/C=C/c2sc3ccc4ccccc4c3[n+]2C)cc1`: the GI50 in [1] was 0.367 µM; in [2], 0.315 µM; in [3] it was 0.33 µM; in [4] it was 2.81 µM; in [5], 0.521 µM. Further, the TGI in assay [2] was 1.71 µM; in assay [3], over 100 µM; in assay [4], over 100 µM; in assay [5], over 100 µM.
`C[n+]1c2ccccc2c(CNC(CCC(N)=O)C(=O)O)c2ccccc21` (stereo not drawn): the TGI in [2] is 10.8 µM; in assay [3], 3.29 µM; in [6], 12 µM; in assay [7] it was 3.22 µM; in [4] it was 14 µM; in assay [8] it was 6.18 µM. Moreover, the TGI in assay [5] amounted to 16.3 µM; in assay [9], 6.19 µM; in [10], 11.4 µM.
With `OCCSCCCSCCO`, the TGI in assay [1], in assay [2], in [3], in [7], in [4] and in assay [5] was over 100 µM throughout. For the same molecule, the TGI in assay [9] and in assay [10] was over 100 µM each time.
Turning to `C=C(C)CCC1CCCCC(CN(C)C)C1=O` (stereo not drawn), the TGI in assay [1], in assay [2], in assay [3], in assay [6], in [7] and in assay [4] was over 100 µM throughout. In addition, the TGI in assay [5], in assay [9] and in assay [10] was over 100 µM in each case.
On to `C/C(Cl)=N\OC(=O)Nc1ccccc1C(F)(F)F`, for which the TGI is over 100 µM in [1]; over 100 µM in assay [2]; 53 µM in [3]; over 100 µM in assay [6]; 38.6 µM in [7]; 47.5 µM in assay [4]. In addition, the TGI in [5] and in assay [10] was over 100 µM in each case.
As to `CN1N=C2c3ccccc3CC[C@H]2C1c1ccccc1` (stereo partly drawn), the TGI in [3] was over 100 µM; in assay [6] it was over 100 µM; in assay [7], over 100 µM; in assay [8], 81.5 µM; in [5], over 100 µM; in assay [9] it was over 100 µM.
On to `Cc1ccc(/C=C2\NC(=S)N(CN3CCOCC3)C2=O)cc1`, for which the TGI in assay [2], in assay [3], in assay [6], in assay [7], in assay [4] and in assay [5] was over 100 µM each time. For the same molecule, the TGI in assay [9] and in assay [10] was over 100 µM each time.
Take `Cc1cc2c(cc1O)CC[C@@H]1[C@@H]2CC[C@]2(C)[C@@H](O)CC[C@@H]12`: the TGI in assay [1] was 38.9 µM; in assay [2] it was 37.7 µM; in assay [3], 27.4 µM; in assay [6] it was 19.8 µM; in assay [7] it was 30.9 µM; in assay [4], 27.2 µM. The TGI in [5] worked out at 33.1 µM; in assay [9], 21 µM; in [10], 36.1 µM. For the same molecule, the GI50 in [9] was 5.39 µM; in [10], 16 µM.
In the case of `OCCCSc1ccccc1SCCCO`, the TGI in [1], in [2], in assay [3], in assay [7], in assay [4] and in [5] was over 100 µM each time. For the same molecule, the TGI in assay [9] and in assay [10] was over 100 µM each time.
In the case of `c1ccc2c(c1)CCc1c-2n(CCN2CCCCC2)c2ccccc12`, the TGI is 44.5 µM in assay [1]; 27.1 µM in assay [2]; over 100 µM in [3]; 30.2 µM in assay [6]; 33 µM in assay [7]; 33.1 µM in assay [4]. Besides, the figures for the TGI in [5], in [9] and in assay [10] were 94.5 µM, 29.1 µM and over 100 µM, respectively.
Turning to `O=C1CN(c2ccc(Cl)cc2)C(=O)CN1CCN1CC(=O)N(c2ccc(Cl)cc2)CC1=O`, the TGI in assay [2], in assay [3], in [7], in assay [8], in [5] and in assay [9] was over 100 µM in each case. Also, in assay [10], the TGI was over 100 µM.
`Cc1cc(N(CCC#N)CCC#N)ccc1/C=C(\NC(=O)/C=C/c1ccccc1)NC(=O)Nc1ccc(Cl)cc1`: the TGI in assay [3] was over 100 µM; in assay [6] it was over 100 µM; in [7], over 100 µM; in [8], 52.6 µM; in [5], over 100 µM; in assay [9] it was over 100 µM.
Consider `COC(=O)C(NC(=O)CNC(=O)CSc1nnc(COc2ccc(Cl)cc2)n1-c1ccccc1)C(C)C` (stereo not drawn), for which the TGI in assay [2] was 33 µM; in assay [3], over 100 µM; in assay [6] it was 40.5 µM; in assay [7] it was 32.5 µM; in assay [4], over 100 µM; in [8] it was 32.8 µM. Besides, the TGI in assay [5] came to 50.1 µM; in [9], 31.8 µM; in assay [10] it was 35.2 µM.
With `Cn1c(-c2csc(-c3ccc(Cl)cc3)n2)n[nH]c1=S`, the TGI in assay [1] is over 100 µM; in assay [2] it was over 100 µM; in assay [3] it was over 100 µM; in assay [7] it was 32.2 µM; in assay [4] it was over 100 µM; in assay [8], 46.3 µM. The TGI in [5] was 44.4 µM; in assay [9], 46.6 µM.
As for `CCSc1nc2sc(C)c(C)c2c(=O)n1-c1ccc(C(=O)O)cc1`, the TGI in assay [3], in [6], in [7], in [8], in assay [5] and in [9] was over 100 µM each time.
Turning to `O=C(CSc1nnc(Cc2ccccc2)o1)Nc1ccc(Cl)cc1`, the TGI in assay [3], in assay [6], in assay [7], in [8], in assay [5] and in [9] was over 100 µM in each case.
With `CCCCCCOc1ccc(NC2=C(Cl)C(=O)c3cccnc3C2=O)cc1`, the TGI in assay [1] was 3.78 µM; in [2], over 10 µM; in [3], over 10 µM; in assay [6], 4.43 µM; in [7], 2.8 µM; in assay [8], 2.77 µM. Moreover, the TGI is over 10 µM in assay [5], 3.28 µM in [9] and 2.9 µM in [10].
`Oc1[nH]c2ccccc2c1N=NC1=NCCCCN1`: the TGI in assay [1], in assay [2], in assay [3], in [6], in [7] and in assay [4] was over 100 µM throughout. The TGI in [5], in assay [9] and in [10] was over 100 µM in each case.
For the molecule `CC12O[C@H](c3ccccc3)[C@H](c3ccccc3)N1C(=O)C1(C(=O)OCc3ccccc3)CC12` (stereo partly drawn), the TGI in assay [3], in assay [6], in assay [7], in [5] and in assay [9] was over 100 µM each time.
For `c1ccc2nc3[nH]c4ccccc4c3cc2c1`, the TGI in assay [2] was 4.09 µM; in assay [3], over 100 µM; in assay [6], 16 µM; in assay [7], 1.16 µM; in assay [4], 8.28 µM; in [8], 2.66 µM. Besides, the TGI in [5] amounted to 4.43 µM; in [9], 2.2 µM; in assay [10], 13.1 µM.
As to `CC1=C/C(=N/N2C(=O)/C(=C/c3ccc(Cl)cc3)N=C2c2ccccc2)CC(C)(C)C1`, the TGI in [1] was over 100 µM; in assay [2] it was over 100 µM; in assay [6], 96 µM; in [7], over 100 µM; in [4] it was over 100 µM; in assay [8], over 100 µM. Further, the TGI in assay [5] and in assay [9] was over 100 µM throughout.
For the molecule `Nc1nc2c(ncn2CCOC(c2ccccc2)P(=O)(O)O)c(=O)[nH]1` (stereo not drawn), the TGI in assay [6], in assay [7], in assay [8], in [5] and in [9] was over 100 µM in each case.
Consider `NC(=O)N/N=C(\Cc1nc2ccc(C(=O)c3ccccc3)cc2[nH]c1=O)C(=O)Nc1ccc(Br)cc1`, for which the TGI in assay [3], in assay [6], in [7], in assay [8], in [5] and in [9] was over 100 µM throughout.
As for `COC(=O)NCCc1[nH]nc2c1C(=O)C=C(OC)C2=O`, the TGI in [2] is 95.8 µM; in assay [3] it was 45.8 µM; in assay [6], over 100 µM; in assay [7], 36.2 µM; in assay [4] it was over 100 µM; in [8], 31.4 µM. Also, the TGI was 45.6 µM in assay [5], 48.7 µM in [9] and over 100 µM in assay [10].
For `O=c1nc2n(cc1/C=C\Br)C1CC(O)C(CO2)O1` (stereo not drawn), the TGI in [1] is over 100 µM; in assay [3], over 100 µM; in assay [7], over 100 µM; in assay [4], over 100 µM; in assay [8], 57 µM; in assay [5], over 100 µM. The TGI in assay [9] and in assay [10] was over 100 µM throughout.
`N#CCCC(CC#N)N1CCN(CCO)CC1` (stereo not drawn): the TGI in [1], in assay [3], in [7], in assay [4], in assay [8] and in assay [5] was over 100 µM throughout. The TGI in assay [9] and in [10] was over 100 µM in each case.
Take `CN(C)C(=O)CC(C(=O)O)c1c[nH]c2ccccc12` (stereo not drawn): the TGI in [3], in assay [6], in assay [7], in [8], in assay [5] and in [9] was over 100 µM in each case.
As for `CCc1cccc(C(C)C)c1NC(=O)C(=O)C(C(=O)C(=O)OC)c1nc2ccccc2[nH]c1=O` (stereo not drawn), the TGI in assay [3], in assay [6], in assay [7], in [8], in assay [5] and in assay [9] was over 100 µM throughout.
With `CN1CCN(CC(=O)Nc2ccc3ncnc(Nc4ccc(Oc5cccc(C(F)(F)F)c5)c(Cl)c4)c3c2)CC1`, the GI50 in assay [1] is 1.66 µM; in assay [2], 1.69 µM; in assay [6], 2.02 µM; in assay [8], 1.41 µM; in assay [9], 1.83 µM; in assay [10] it was 1.4 µM. For the same molecule, the TGI is 4.1 µM in assay [1]; 3.26 µM in assay [2]; 4.04 µM in [6]; 2.89 µM in assay [8]; 3.4 µM in assay [9]; 2.71 µM in assay [10].
For `O=c1ccc2ccccc2o1`, the TGI in assay [3], in assay [6], in [7], in [8], in assay [5] and in assay [9] was over 100 µM in each case.
For the molecule `CC1=C(C2=C(C)C(=O)C(=O)c3cc(C)ccc32)c2ccc(C)cc2C(=O)C1=O`, the TGI is 1.04 µM in assay [2]; over 100 µM in assay [3]; 0.877 µM in assay [6]; 1.45 µM in assay [7]; 0.62 µM in [8]; 0.31 µM in assay [5]. The TGI in [9] turned out to be 0.381 µM; in assay [10], 2.84 µM.
As for `CCOC(=O)c1c(C)n(Cc2ccccc2)c2c1cc(O)c1[nH]c3c(c12)CCCC3`, the TGI in assay [2] amounted to 9.92 µM; in assay [3], 7.4 µM; in [6], 5.25 µM; in assay [7], 30.2 µM; in [4], 18.5 µM; in assay [5] it was 16.5 µM. The TGI came to 4.32 µM in [9] and 26.1 µM in assay [10].
Consider `CCOC(OCC)C(CC)[Se]c1ccccc1[N+](=O)[O-]` (stereo not drawn), for which the TGI in [1] is over 100 µM; in assay [2], over 100 µM; in assay [3] it was over 62.5 µM; in assay [6] it was over 90.4 µM; in assay [7] it was over 46.7 µM; in assay [8] it was 5.59 µM. The TGI was over 94.5 µM in assay [5], over 56.2 µM in assay [9] and over 100 µM in assay [10].
